These are literature values, as cited in patent US20100035949A1 (priority 2006, published 2010).

Molecules are shown by their SMILES.

The conditions of data set [1]: pH dependent; decreases as pH increases from acidic to neutral.
The conditions of data set [2]: humans.

Regarding `CCCCC(=O)N(Cc1ccc(-c2ccccc2-c2nnn[nH]2)cc1)[C@H](C(=O)O)C(C)C` [valsartan, (S)-N-valeryl-N-{[2′-(1H-tetrazole-5-yl)-biphenyl4-yl]-methyl}-valine], the permeability entry in data set [1] was “low”. Moreover, the oral bioavailability entry in data set [2] (known dosage forms) was “about 25%”. In addition, in data set [2] (wide range with large inter- and intra-subject variabilities), the “oral bioavailability, range” value is 25-40%.
